# From patent US3948925A, “Novel thiazole derivatives” (priority 1973, dated 1976)
# Where two headings read alike, the source gives them in different places.
# What was measured:
# Assay type in all cases: in vivo
# Panagrellus silusae = assay: Nematocidal activity against Panagrellus silusae in aqueous suspension; details: for mortality at 100 µg/mL / mortality at 1000 µg/mL: Panagrellus, 24 hours; for mortality at 100 µg/mL: 0.1 g/l; for mortality at 1000 µg/mL: 1 g/l; for nematocidal activity: in vivo
# Experimental: (§1) About 2000 nematodes suspended in 0.5 ml of water were placed in a container of about 50 ml and 10 ml of an aqueous suspension of the test compound at a concentration of 1 or 0.1 g/liter were added thereto using 3 tests for each concentration. After homogenization of the aqueous media for 24 hours, a 1 ml sample was taken and the living and dead nematodes were counted with a Peter sheet.
# Ceratitis capitata = assay: Insecticidal activity against Ceratitis capitata flies, topical application; details: for mortality at 100 µg/mL / mortality at 1000 µg/mL: Ceratitis capitata; for mortality at 100 µg/mL: topical; for mortality at 1000 µg/mL: 1000 mg per liter, 1 μl topical
# Experimental: This test was effected topically with acetone solutions of 1000 or 100 mg of compound A per liter and 1 μl of the solution was applied to the dorsal thorax of Ceratitis capitata flies aged 25 days (± 0.5) using 50 insects for each concentration. The number of flies still living and dead was determined after 2 and 24 hours to determine the percent of mortality.
# [1] = test system: Mamestra oleracea caterpillars; assay: Insecticidal activity against Mamestra oleracea caterpillars, topical application; details: for mortality at 0.001 mg / mortality at 0.01 mg: Mamestra, topical; for mortality at 0.001 mg: 1 μg; for mortality at 0.01 mg: 10 μg
# [2] = test system: Chilo suppressalis caterpillars; assay: Insecticidal activity against Chilo suppressalis caterpillars, topical application; details: for mortality at 0.001 mg / mortality at 0.01 mg: Chilo suppressalis, topical; for mortality at 0.001 mg: 1 μg; for mortality at 0.01 mg: 10 μg
# Experimental: (§2) This test was effected on Mamestra brassicae caterpillars in the last larvae stage with a body of 1.5 to 2.0 cm. 1 μl of an acetone solution of the test compound was applied topically to the dorsal thorax of each caterpillar using 10 caterpillars for each dose studied and the caterpillars were kept at 25°C.
# (§3) The procedure of Test A was repeated with Spodoptera expigua and Chilo suppressalis caterpillars with compound A and the results are reported in Table II.
# Drosophila melanogaster = assay: Insecticidal activity against Drosophila melanogaster, dried film in crystallizer (contact and vapor); details: for Emax at 50 µg/mL / Emax at 500 µg/mL / Emax at 5000 µg/mL: Drosophila melanogaster, read-out: % Efficacy; for Emax at 50 µg/mL: 50 mg/liter; for Emax at 500 µg/mL: 500 mg/liter; for Emax at 5000 µg/mL: 5000 mg/liter
# Experimental: 2 ml of an acetone solution of the test product at concentrations of 5000, 500 and 50 ppm were placed in the bottom of a crystallizer and were then allowed to dry for 1 hour under a laboratory atmosphere. Three tests were run for each concentration and 25 to 50 drosophiles were placed in the crystallizer together with a carrot ring which acted as nutrient for the insects. The crystallizers were closed with a Petri dish cover and they were stored at 20°C. The number of living and dead insects was determined after 1,2,4 and 24 hours and the results for compound A are reported in Table IV.
# [3] = test system: Ditylenchus myceliophagus; assay: Nematocidal activity against Ditylenchus myceliophagus in aqueous suspension; details: for mortality at 100 µg/mL / mortality at 1000 µg/mL: Ditylenchus myceliophagus, 24 hours; for mortality at 100 µg/mL: 0.1 g/l; for mortality at 1000 µg/mL: 1.0 g/l; for nematocidal activity: in vivo
# Experimental: as §1
# [4] = test system: Mamestra brassicae caterpillars; assay: Insecticidal activity against Mamestra brassicae caterpillars, topical application; details: 10 μg per caterpillar; for mortality at 0.01 mg: Mamestra brassicae, topical, read-out: percent of mortality
# Experimental: as §2
# Tetranychus urticae eggs = assay: Acaricidal activity, ovicide test on egg-infested bean leaves; details: 216 h, 9 days after treatment
# Experimental: (§4) Bean leaves infested with 10 Tetranychus urticae females per leaf and coated with glue about their periphery were used in this test and the females were left to lay eggs for 24 hours and were then removed from the leaves which were egg infested and divided into 2 groups. The first group was sprayed with 0.5 ml of an aqueous solution of compound A for each leaf at concentrations of 50 or 10 mg per liter and the second group was untreated to act as controls. The number of living eggs 9 days after the treatment was determined and the percent of egg mortality was determined and reported in Table IX.
# Sitophilus granarius = assay: Insecticidal activity against Sitophilus granarius, topical application to ventral thorax; details: 20°C; for mortality at 0.1 mg: dose 100 (μg); for mortality at 1 mg: dose 1000 (μg)
# Experimental: 0.2 μl of an acetone solution of the test product was applied to the ventral thorax of each insect at concentrations of 5000 and 500 ppm with 50 insects for each test. The insects were held at 20°C and the percent of mortality was determined 24 and 48 hours and 6 days after the treatment.
# [5] = test system: Spodoptera exigua caterpillars; assay: Insecticidal activity against Spodoptera exigua caterpillars, topical application; details: for mortality at 0.001 mg / mortality at 0.01 mg: Spodoptera exigua, topical; for mortality at 0.001 mg: 1 μg; for mortality at 0.01 mg: 10 μg
# Experimental: as §2, §3
# Blatella germanica = assay: Insecticidal activity against Blatella germanica, topical application to ventral thorax; details: for insecticidal activity: in vivo
# Experimental: 1 μl of an acetone solution of the test product was applied to the ventral thorax of the insects with 20 insects per dose and concentrations of 2500, 1250, 625 and 312,5 mg/liter. The number of living and dead insects 24 and 48 hours and 6 days after the treatment was determined and the results were reported in Table VI.
# [6] = test system: Tetranychus urticae larvae; assay: Acaricidal activity, larvicide test on bean leaves; details: 216 h, 9 days after treatment
# Experimental: as §4
# This test was similar to the ovicide test but the readings were effected 9 days after the treatment to allow time for the insects to evolve.
# Tetranychus urticae = assay: Acaricidal activity, adulticide test on infested bean leaves; details: read-out: % Mortality (adults); for mortality at 10 µg/mL: 10 mg/liter
# Experimental: Bean leaves infested with 25 acarids per leaf and coated with glue about their edge were divided into 2 groups. The first group was sprayed with 2.5 ml of an aqueous solution of the test compound A for each leaf at concentrations of 50, 10 and 1 mg/liter. The second control group was untreated and the number of acarids living 48 hours after the spraying was determined to determine the percent of mortality.
structure (smiles),measurement,setting,value
"CCOC(=O)c1csc(OP(=S)(OCC)OCC)n1 [Compound A, 4-ethoxycarbonyl-2-(diethoxythiophosphoryloxy)-thiazole]",mortality at 100 µg/mL,Panagrellus silusae,86.5%
same,mortality at 1000 µg/mL,Panagrellus silusae,100%
same,nematocidal activity,Panagrellus silusae,good nematocidal activity
same,mortality at 100 µg/mL,Ceratitis capitata; 2 h,61.2%
same,mortality at 100 µg/mL,Ceratitis capitata; 24 h,38.8%
same,mortality at 1000 µg/mL,Ceratitis capitata; 2 hours,91.7%
same,mortality at 1000 µg/mL,Ceratitis capitata; 24 hours,97.9%
same,insecticidal activity,Ceratitis capitata; in vivo,good insecticidal activity
same,mortality at 0.001 mg,[1]; 24 hr,40%
same,mortality at 0.001 mg,[1]; 48 hr,50%
same,mortality at 0.01 mg,[1]; 24 hr,100%
same,mortality at 0.01 mg,[1]; 48 hr,100%
same,insecticidal activity,[1]; in vivo,good insecticidal activity
same,mortality at 0.001 mg,[2]; 24 hr,100%
same,mortality at 0.001 mg,[2]; 48 hr,100%
same,mortality at 0.01 mg,[2]; 24 hr,100%
same,mortality at 0.01 mg,[2]; 48 hr,100%
same,insecticidal activity,[2]; in vivo,good insecticidal activity
same,Emax at 50 µg/mL,Drosophila melanogaster; 1 hour,0%
same,Emax at 50 µg/mL,Drosophila melanogaster; 2 hours,0%
same,Emax at 50 µg/mL,Drosophila melanogaster; 4 hours,0%
same,Emax at 50 µg/mL,Drosophila melanogaster; 24 hours,32.8%
same,Emax at 500 µg/mL,Drosophila melanogaster; 1 hour,0%
same,Emax at 500 µg/mL,Drosophila melanogaster; 2 hours,0%
same,Emax at 500 µg/mL,Drosophila melanogaster; 4 hours,0%
same,Emax at 500 µg/mL,Drosophila melanogaster; 24 hours,100%
same,Emax at 5000 µg/mL,Drosophila melanogaster; 1 hour,0%
same,Emax at 5000 µg/mL,Drosophila melanogaster; 2 hours,0%
same,Emax at 5000 µg/mL,Drosophila melanogaster; 4 hours,5.9%
same,Emax at 5000 µg/mL,Drosophila melanogaster; 24 hours,100%
same,contact and vapor insecticidal activity,Drosophila melanogaster; in vivo,good contact and vapor insecticidal activity
same,mortality at 100 µg/mL,[3],88.4%
same,mortality at 1000 µg/mL,[3],100%
same,nematocidal activity,[3],good nematocidal activity
same,insecticidal activity,[4],good insecticidal activity
same,mortality at 0.01 mg,[4]; 24 h,100%
same,mortality at 0.01 mg,[4]; 48 h,100%
same,mortality at 10 µg/mL,Tetranychus urticae eggs; 10 mg/liter,93.3%
same,mortality at 50 µg/mL,Tetranychus urticae eggs; 50 mg/liter,100%
same,mortality at 0.1 mg,"Sitophilus granarius; 144 h, 6 days",10%
same,mortality at 1 mg,"Sitophilus granarius; 144 h, 6 days",100%
same,mortality at 0.1 mg,Sitophilus granarius; 24 hr,6%
same,mortality at 0.1 mg,Sitophilus granarius; 48 hr,6%
same,mortality at 1 mg,Sitophilus granarius; 24 hr,100%
same,mortality at 1 mg,Sitophilus granarius; 48 hr,100%
same,mortality at 0.001 mg,[5]; 24 hr,90%
same,mortality at 0.001 mg,[5]; 48 hr,90%
same,mortality at 0.01 mg,[5]; 24 hr,100%
same,mortality at 0.01 mg,[5]; 48 hr,100%
same,insecticidal activity,[5]; in vivo,good insecticidal activity
same,% mortality,"Blatella germanica; 625 mg/liter, 24 hr",10.0%
same,% mortality,"Blatella germanica; 625 mg/liter, 48 hr",10.0%
same,% mortality,"Blatella germanica; 625 mg/liter, 6 days",15.0%
same,% mortality,"Blatella germanica; 1250 mg/liter, 24 hr",90.0%
same,% mortality,"Blatella germanica; 1250 mg/liter, 48 hr",95.0%
same,% mortality,"Blatella germanica; 1250 mg/liter, 6 days",100%
same,% mortality,"Blatella germanica; 2500 mg/liter, 24 hr",95.0%
same,% mortality,"Blatella germanica; 2500 mg/liter, 48 hr",95.0%
same,% mortality,"Blatella germanica; 2500 mg/liter, 6 days",100%
same,insecticidal activity,Blatella germanica,good insecticidal activity
same,mortality at 10 µg/mL,[6]; 10 mg/liter,100%
same,mortality at 50 µg/mL,[6]; 50 mg/liter,100%
same,mortality at 10 µg/mL,Tetranychus urticae; 48 hours,100%
same,mortality at 50 µg/mL,"Tetranychus urticae; 50 mg/liter, 48 hours",100%
"CCOC(=O)Cc1csc(OP(=S)(OCC)OCC)n1 [Compound B, 4-ethoxycarbonylmethyl-2-(diethoxythiophosphoryloxy)-thiazole]",mortality at 100 µg/mL,Panagrellus silusae,100%
same,mortality at 1000 µg/mL,Panagrellus silusae,100%
same,nematocidal activity,Panagrellus silusae,good nematocidal activity
same,mortality at 100 µg/mL,[3],55.7%
same,mortality at 1000 µg/mL,[3],100%
same,nematocidal activity,[3],good nematocidal activity
same,% mortality,"Blatella germanica; 625 mg/liter, 24 hr",100%
same,% mortality,"Blatella germanica; 625 mg/liter, 48 hr",100%
same,% mortality,"Blatella germanica; 625 mg/liter, 6 days",100%
same,% mortality,"Blatella germanica; 1250 mg/liter, 24 hr",100%
same,% mortality,"Blatella germanica; 1250 mg/liter, 48 hr",100%
same,% mortality,"Blatella germanica; 1250 mg/liter, 6 days",100%
same,% mortality,"Blatella germanica; 312,5 mg/liter, 24 hr",90%
same,% mortality,"Blatella germanica; 312,5 mg/liter, 48 hr",90%
same,% mortality,"Blatella germanica; 312,5 mg/liter, 6 days",90%
same,insecticidal activity,Blatella germanica,good insecticidal activity
same,mortality at 1 µg/mL,"Tetranychus urticae; 1 mg/liter, 48 hours",20%
same,mortality at 10 µg/mL,Tetranychus urticae; 48 hours,96%
same,mortality at 50 µg/mL,Tetranychus urticae; 48 h,100%
